Data as given in patent publication US10681908B2, “Molecules having pesticidal utility, and intermediates, compositions, and processes, related thereto” (Dow AgroSciences LLC, priority 2016, dated 2020).
Read-outs that look alike come from different tables or passages of the source.

What was measured:
[1] = tested on: Beet Armyworm (Spodoptera exigua, LAPHEG); assay: Bioassay on Beet Armyworm (BAW), 128-well diet tray assay; format: in vivo; conditions: for mortality at 50 µg/cm2: 168 h, 50 μg/cm^2 on artificial diet, second instar larvae, five to seven days, 25° C., read-out: BAW % Control (or Mortality) rating
Procedure: (§1) Example A: Bioassays on Beet Armyworm (Spodoptera Exigua, LAPHEG) (“BAW”), Corn Earworm (Helicoverpa zea, HELIZE) (“CEW”), and Cabbage Looper (Trichoplusia ni, TRIPNI) (“CL”)
(§2) Certain molecules disclosed in this document were tested against BAW, CEW, and CL using procedures described in the following examples. In the reporting of the results, the “BAW, CEW, & CL Rating Table” was used (See Table Section).
Bioassays on BAW were conducted using a 128-well diet tray assay. One to five second instar BAW larvae were placed in each well (3 mL) of the diet tray that had been previously filled with 1 mL of artificial diet to which 50 μg/cm^2 of the test molecule (dissolved in 50 μL of 90:10 acetone-water mixture) had been applied (to each of eight wells) and then allowed to dry. Trays were covered with a clear self-adhesive cover and held at 25° C., 14:10 light-dark for five to seven days. Percent mortality was recorded for the larvae in each well; activity in the eight wells was then averaged. The results are indicated in the table entitled “Table ABC: Biological Results” (See Table Section).
(§3) Bioassays on BAW and CL were conducted according to the procedures outlined in Example A: Bioassays on Beet Armyworm (“BAW”) and Cabbage Looper (“CL”) using the indicated concentrations.

[2] = tested on: Cabbage Looper (Trichoplusia ni, TRIPNI); assay: Bioassay on Cabbage Looper (CL), 128-well diet tray assay; format: in vivo; conditions: for mortality at 50 µg/cm2: 168 h, 50 μg/cm^2 on artificial diet, second instar larvae, five to seven days, 25° C., read-out: CL % Control (or Mortality) rating
Procedure: as §1, §2
Bioassays on CL were conducted using a 128-well diet tray assay. One to five second instar CL larvae were placed in each well (3 mL) of the diet tray that had been previously filled with 1 mL of artificial diet to which 50 μg/cm^2 of the test molecule (dissolved in 50 μL of 90:10 acetone-water mixture) had been applied (to each of eight wells) and then allowed to dry. Trays were covered with a clear self-adhesive cover and held at 25° C., 14:10 light-dark for five to seven days. Percent mortality was recorded for the larvae in each well; activity in the eight wells was then averaged. The results are indicated in the table entitled “Table ABC: Biological Results” (See Table Section).
as §3

[3] = 0.05 μg/cm^2, Table CD2 comparative data, read-out: Percent control (or mortality) BAW
[4] = 0.5 μg/cm^2, Table CD2 comparative data, read-out: Percent control (or mortality) BAW
[5] = 5 μg/cm^2, Table CD2 comparative data, read-out: Percent control (or mortality) BAW
[6] = 0.05 μg/cm^2, Table CD2 comparative data, read-out: Percent control (or mortality) CL
[7] = 0.5 μg/cm^2, Table CD2 comparative data, read-out: Percent control (or mortality) CL
[8] = 5 μg/cm^2, Table CD2 comparative data, read-out: Percent control (or mortality) CL
[9] = 0.05 μg/cm^2, read-out: BAW Percent control (or mortality)
[10] = 0.5 μg/cm^2, read-out: BAW Percent control (or mortality)
[11] = 5 μg/cm^2, read-out: BAW Percent control (or mortality)
[12] = 0.05 μg/cm^2, read-out: CL Percent control (or mortality)
[13] = 0.5 μg/cm^2, read-out: CL Percent control (or mortality)
[14] = 5 μg/cm^2, read-out: CL Percent control (or mortality)

SMILES	mortality at 50 µg/cm2 [1] [%]	mortality at 50 µg/cm2 [2] [%]	other results
Cc1cc(/C(F)=C/C(c2cc(Cl)c(Cl)c(Cl)c2)C(F)(F)F)ccc1C(=O)N[C@H](C)CSCC(F)(F)F (stereo partly drawn) [F4, 2-Methyl-4-((Z)-1,4,4,4-tetrafluoro-3-(3,4,5-trichlorophenyl)but-1-en-1-yl)-N—((R)-1-((2,2,2-trifluoroethyl)thio)propan-2-yl)benzamide]	50 to 100	50 to 100	mortality at 0.05 µg/cm2 [1, 3]: 67%; mortality at 0.5 µg/cm2 [1, 4]: 100%; mortality at 5 µg/cm2 [1, 5]: 100%; mortality at 0.05 µg/cm2 [2, 6]: 7%; mortality at 0.5 µg/cm2 [2, 7]: 60%; mortality at 5 µg/cm2 [2, 8]: 100%
Cc1cc(/C(F)=C/C(c2cc(Cl)c(Cl)c(Cl)c2)C(F)(F)F)ccc1C(=O)N[C@H](C)C[S+]([O-])CC(F)(F)F (stereo partly drawn) [F5, 2-Methyl-4-((Z)-1,4,4,4-tetrafluoro-3-(3,4,5-trichlorophenyl)but-1-en-1-yl)-N-((2R)-1-((2,2,2-trifluoroethyl)sulfinyl)propan-2-yl)benzamide]	50 to 100	50 to 100	
Cc1cc(/C(F)=C/C(c2cc(Cl)c(Cl)c(Cl)c2)C(F)(F)F)ccc1C(=O)N[C@H](C)CS(=O)(=O)CC(F)(F)F (stereo partly drawn) [F6, 2-Methyl-4-((Z)-1,4,4,4-tetrafluoro-3-(3,4,5-trichlorophenyl)but-1-en-1-yl)-N—((R)-1-((2,2,2-trifluoroethyl)sulfonyl)propan-2-yl)benzamide]	50 to 100	50 to 100	
C[C@H](CSCC(F)(F)F)NC(=O)c1ccc(/C(F)=C/C(c2cc(Cl)c(Cl)c(Cl)c2)C(F)(F)F)cc1Br (stereo partly drawn) [F7, 2-Bromo-4-((Z)-1,4,4,4-tetrafluoro-3-(3,4,5-trichlorophenyl)but-1-en-1-yl)-N—((R)-1-((2,2,2-trifluoroethyl)thio)propan-2-yl)benzamide]	50 to 100	50 to 100	mortality at 0.05 µg/cm2 [1, 3]: 0%; mortality at 0.5 µg/cm2 [1, 4]: 100%; mortality at 5 µg/cm2 [1, 5]: 100%; mortality at 0.05 µg/cm2 [2, 6]: 0%; mortality at 0.5 µg/cm2 [2, 7]: 56%; mortality at 5 µg/cm2 [2, 8]: 100%
C[C@H](CS(=O)(=O)CC(F)(F)F)NC(=O)c1ccc(/C(F)=C/C(c2cc(Cl)c(Cl)c(Cl)c2)C(F)(F)F)cc1Br (stereo partly drawn) [F8, 2-Bromo-4-((Z)-1,4,4,4-tetrafluoro-3-(3,4,5-trichlorophenyl)but-1-en-1-yl)-N—((R)-1-((2,2,2-trifluoroethyl)sulfonyl)propan-2-yl)benzamide]	50 to 100	50 to 100	
C[C@H](C[S+]([O-])CC(F)(F)F)NC(=O)c1ccc(/C(F)=C/C(c2cc(Cl)c(Cl)c(Cl)c2)C(F)(F)F)cc1Br (stereo partly drawn) [F9, 2-Bromo-4-((Z)-1,4,4,4-tetrafluoro-3-(3,4,5-trichlorophenyl)but-1-en-1-yl)-N-((2R)-1-((2,2,2-trifluoroethyl)sulfinyl)propan-2-yl)benzamide]	50 to 100	50 to 100	
C[C@H](CSCC(F)(F)F)NC(=O)c1ccc(/C(F)=C/C(c2cc(Cl)c(Cl)c(Cl)c2)C(F)(F)F)cc1Cl (stereo partly drawn) [F10, 2-Chloro-4-((Z)-1,4,4,4-tetrafluoro-3-(3,4,5-trichlorophenyl)but-1-en-1-yl)-N—((R)-1-((2,2,2-trifluoroethyl)thio)propan-2-yl)benzamide]	50 to 100	50 to 100	mortality at 0.05 µg/cm2 [1, 3]: 0%; mortality at 0.5 µg/cm2 [1, 4]: 100%; mortality at 5 µg/cm2 [1, 5]: 100%; mortality at 0.05 µg/cm2 [2, 6]: 6%; mortality at 0.5 µg/cm2 [2, 7]: 100%; mortality at 5 µg/cm2 [2, 8]: 100%
C[C@H](CS(=O)(=O)CC(F)(F)F)NC(=O)c1ccc(/C(F)=C/C(c2cc(Cl)c(Cl)c(Cl)c2)C(F)(F)F)cc1Cl (stereo partly drawn) [F11, 2-Chloro-4-((Z)-1,4,4,4-tetrafluoro-3-(3,4,5-trichlorophenyl)but-1-en-1-yl)-N—((R)-1-((2,2,2-trifluoroethyl)sulfonyl)propan-2-yl)benzamide]	50 to 100	50 to 100	
C[C@H](C[S+]([O-])CC(F)(F)F)NC(=O)c1ccc(/C(F)=C/C(c2cc(Cl)c(Cl)c(Cl)c2)C(F)(F)F)cc1Cl (stereo partly drawn) [F12, 2-Chloro-4-((Z)-1,4,4,4-tetrafluoro-3-(3,4,5-trichlorophenyl)but-1-en-1-yl)-N-((2R)-1-((2,2,2-trifluoroethyl)sulfinyl)propan-2-yl)benzamide]	50 to 100	50 to 100	
Cc1cc(/C(F)=C/C(c2cc(Cl)c(Cl)c(Cl)c2)C(C)(F)F)ccc1C(=O)N[C@H](C)CSCC(F)(F)F (stereo partly drawn) [F13, 2-Methyl-4-((Z)-1,4,4-trifluoro-3-(3,4,5-trichlorophenyl)pent-1-en-1-yl)-N—((R)-1-((2,2,2-trifluoroethyl)thio)propan-2-yl)benzamide]	50 to 100	50 to 100	
Cc1cc(/C(F)=C/C(c2cc(Cl)c(Cl)c(Cl)c2)C(C)(F)F)ccc1C(=O)N[C@H](C)CS(=O)(=O)CC(F)(F)F (stereo partly drawn) [F14, 2-Methyl-4-((Z)-1,4,4-trifluoro-3-(3,4,5-trichlorophenyl)pent-1-en-1-yl)-N—((R)-1-((2,2,2-trifluoroethyl)sulfonyl)propan-2-yl)benzamide]	50 to 100	50 to 100	mortality at 0.05 µg/cm2 [1, 9]: 69%; mortality at 0.5 µg/cm2 [1, 10]: 100%; mortality at 5 µg/cm2 [1, 11]: 100%; mortality at 0.05 µg/cm2 [2, 12]: 100%; mortality at 0.5 µg/cm2 [2, 13]: 100%; mortality at 5 µg/cm2 [2, 14]: 100%
C[C@H](CSCC(F)(F)F)NC(=O)c1ccc(/C(F)=C/C(c2cc(Cl)c(Cl)c(Cl)c2)C(C)(F)F)cc1C(F)(F)F (stereo partly drawn) [F15, 4-((Z)-1,4,4-Trifluoro-3-(3,4,5-trichlorophenyl)pent-1-en-1-yl)-N—((R)-1-((2,2,2-trifluoroethyl)thio)propan-2-yl)-2-(trifluoromethyl)benzamide]	50 to 100	50 to 100	
C[C@H](CS(=O)(=O)CC(F)(F)F)NC(=O)c1ccc(/C(F)=C/C(c2cc(Cl)c(Cl)c(Cl)c2)C(C)(F)F)cc1C(F)(F)F (stereo partly drawn) [F16, 4-((Z)-1,4,4-Trifluoro-3-(3,4,5-trichlorophenyl)pent-1-en-1-yl)-N—((R)-1-((2,2,2-trifluoroethyl)sulfonyl)propan-2-yl)-2-(trifluoromethyl)benzamide]	50 to 100	50 to 100	mortality at 0.05 µg/cm2 [1, 9]: 100%; mortality at 0.5 µg/cm2 [1, 10]: 100%; mortality at 5 µg/cm2 [1, 11]: 100%; mortality at 0.05 µg/cm2 [2, 12]: 100%; mortality at 0.5 µg/cm2 [2, 13]: 100%; mortality at 5 µg/cm2 [2, 14]: 100%
C[C@H](CSCC(F)(F)F)NC(=O)c1ccc(/C(F)=C/C(c2cc(Cl)c(Br)c(Cl)c2)C(F)(F)F)cc1C(F)(F)F (stereo partly drawn) [F24, 4-((Z)-3-(4-Bromo-3,5-dichlorophenyl)-1,4,4,4-tetrafluorobut-1-en-1-yl)-N—((R)-1-((2,2,2-trifluoroethyl)thio)propan-2-yl)-2-(trifluoromethyl)benzamide]	50 to 100	50 to 100	
CCC(F)(F)C(/C=C(\F)c1ccc(C(=O)N[C@H](C)CS(=O)(=O)CC(F)(F)F)c(C(F)(F)F)c1)c1cc(Cl)c(Cl)c(Cl)c1 (stereo partly drawn) [F38, 4-((Z)-1,4,4-Trifluoro-3-(3,4,5-trichlorophenyl)hex-1-en-1-yl)-N—((R)-1-((2,2,2-trifluoroethyl)sulfonyl)propan-2-yl)-2-(trifluoromethyl)benzamide]	50 to 100	50 to 100	
